One compound from patent publication US20200009185A1, “METHOD FOR MAINTAINING INCREASED […] p53 LEVEL, INDUCED BY […]-BASED […] DRUG, AND APPLICATION THEREOF” (priority 2015, published 2020) can be followed below.

Experiment [1] has as its system Hela cells. Description: Western blot of TP53 and HPV E6/E7 after HPV E6/E7 siRNA and cisplatin (Example 1-1). Format: cell-based, human. To be noted: Hela cells transformed with HPV E6/E7 siRNA, 10 μM cisplatin for 24 hours; FIG. 1A. As to the method:
Cervical cancer cell and HeLa cervical cancer cell lines (HeLa; ATCC CCL-2) infected with HPV type 18 virus and SiHa cervical cancer cell lines (SiHa; ATCC HTB-35) infected with HPV type 16 virus were plated on a 6-well plate with 5×10^4 or 1×10^5 cells and cultured in RPMI 1640 or DMEM medium for 24 hours at 37° C. and 5% carbon dioxide, respectively. siRNA intracellular transfection was performed with DharmaFect (Dharmacon, Lafayette, Colo., USA) according to manufacturer's instructions.
HeLa cervical carcinoma cells infected with HPV type 18 virus were transformed by pooling with each of siRNAs of 426 and 450 sequences, or respectively. The HPV type 16 virus-infected siHa cell line was transformed by pooling siRNAs of 366, 448 and 497 sequences, or respectively.
In the Western blot, whole-cell lysate was extracted with RIPA buffer (10 mM Tris ([…]), 0.15 M NaCl, 5 mM EDTA, 1% Triton X-100, 0.5% deoxycholic acid sodium salt and 0.1% SDS). After centrifugation, the protein concentration of the supernatant was measured using a BCA protein assay kit (Thermo Fisher Scientific Inc). Protein samples were placed in sample buffer and boiled for 5 minutes for complete denaturation. The samples were then applied to 6%, 10%, or 15% polyacrylamide gels and transferred to a 0.4 μm PVDF membrane (Milipore, Bilerica). […] Finally, the expression level of the protein was detected using ECL solution. […]

For experiment [2], the system named is CaSki cells. Described as above. Format: cell-based, human. As to conditions: CaSki cells transformed with HPV E6/E7 siRNA, 10 μM cisplatin for 24 hours; FIG. 1A.
For experiment [3], the system named is CaSki cells. Description: WST cell viability analysis (Example 1-2). Format: cell-based, human. As to conditions: CaSki cells transformed with HPV E6/E7 siRNA, 10 μM cisplatin 24 hours, vs group not treated with cisplatin; FIG. 1B. The procedure:
(§1) WST analysis was performed to confirm cell viability.
(§2) Cell counts were determined by water soluble tetrazolium salts (WST) (EZ-Cytox kit; Daeil Lab Service, Seoul, Korea). EZ-Cytox solution (50 μl) added to each well of a 12-well plate and incubated for 2 to 3 hours. Live cells were measured (485 nm) using a GENios Pro microplate reader (Tecan Trading AG, Mannedorf, Switzerland) in a 96-well plate.

Experiment [4] concerns Hela cells. Description: WST cell viability analysis (Example 1-2). Format: cell-based, human. To be noted: Hela cells transformed with HPV E6/E7 siRNA, 10 μM cisplatin 24 hours, vs group not treated with cisplatin; FIG. 1B. As to the method:
as §1, §2

For experiment [5], the system named is CaSki cells. Description: TP53 and E2F luciferase reporter assay (Example 1-3). Format: cell-based, human. To be noted: CaSki cells treated with cisplatin and HPV E6/E7 siRNA; FIG. 1C. The procedure:
(§3) The above luciferase reporter vector system was purchased from Clontech pathway profiling system (Mountain View, Calif., USA). Luciferase assay was performed using Dual-Luciferase Reporter Assay System (Promega) after 24 hours of transfection, and luminescence activity was measured using a GENios Pro microplate reader (Tecan Trading AG, Mannedorf, Switzerland).

Experiment [6] has as its system Hela cells. The experiment is described as above. It counts as cell-based, human. As to conditions: Hela cells treated with cisplatin and HPV E6/E7 siRNA; FIG. 1C. The procedure: as §3
The subject of experiment [7] is CaSki cells. Description: Western blot of TP53, RB, E6, E7 at time points (Example 1-4). It counts as cell-based, human. To be noted: CaSki cells transformed with HPV E6/E7 siRNA then treated with cisplatin; FIG. 1D, 1E. The source says:
(§4) Cell lysates were then obtained and subjected to western blotting.
(§5) In western blotting, antibodies of Santa Cruz Biotechnology ([…], Calif.) were used for TP53 [DO7], HPV 18-E6 [G7], HPV 16-E6 [C1P5], HPV 18-E7 [F7], HPV 16-E7 [ED17], E2F-1 [KH195], Cyclin-E [M20], β-Actin [C4] and antibody of BD Pharmingen was used for RB [554164], antibody of cell signaling was used for phospho-TP53 (ser-15) [9284].
For orientation: Immunoblotting shows a protein as a band on a membrane.

The test system of experiment [8] is Hela cells. The description is as above. Format: cell-based, human. As to conditions: Hela cells transformed with HPV E6/E7 siRNA then treated with cisplatin; FIG. 1D, 1E.
From the text: as §4, §5

For experiment [9], the system named is human cervical cancer cells. Description: Tumor growth in animal model transplanted with human cervical cancer cells. Format: in vivo. As to conditions: low concentration of cisplatin.
Experiment [10] concerns cervical cancer cell lines. Description: Expression level of intracellular p53 over time in cervical cancer cell lines. Format: cell-based.

Molecules are shown by their SMILES.

For the compound `N.N.[Cl][Pt][Cl]` [cisplatin, cis-diamminedichloroplatinum [II]], in the experiment with Hela cells [1], the “amount of HPV E6/E7 protein expression” value was “not observed” and the “amount of TP53 expression” value is listed as “increased”. Also, in the experiment on CaSki cells [2], the “amount of HPV E6/E7 protein expression” value is “not observed” and the “amount of TP53 expression” value is on record as “increased”. Moreover, the cell viability result in the experiment with CaSki cells [3] is given as “decreased”. Besides, in the experiment on Hela cells [4], the cell viability entry was “decreased”. For the same compound, in the experiment with CaSki cells [5], the “activity of E2F (luciferase reporter)” value is recorded as “further decrease” and the “activity of TP53 (luciferase reporter)” value is given as “increase”. Moreover, in the experiment with Hela cells [6], the “activity of E2F (luciferase reporter)” value is “further decrease” and the “activity of TP53 (luciferase reporter)” value is listed as “increase”. For the same compound, in the experiment with CaSki cells [7], the “expression level of TP53” value is on record as “increased”; the “expression level of pRB” value is recorded as “increased”; the “expression levels of 16-E6 and 16-E7” value was “decreased”. Further, in the experiment with Hela cells [8], the “expression level of TP53” value is “increased”; the “expression level of pRB” value is given as “increased”; the “expression levels of 18-E6 and 18-E7” value is reported as “decreased”. The “tumor growth inhibitory effect” value in experiment [9] was “no tumor growth inhibitory effect”. Further, in experiment [10], the “expression level of intracellular p53” value was “in the form of a pulse and repeatedly increased and decreased”.
